Reference: the NIST ThermoML archive (doi:10.1021/je100788g)
± gives the expanded uncertainty stated by the source.

Assays:
[1] = xn = mol fraction of the nth substance listed; conditions: 313.15 K, Fluid (supercritical or subcritical phases), Vibrating tube method
[2] = refractive index (Na D-line) (dimensionless); conditions: 298.15 K; 101.33 kPa; Liquid; Standard Abbe refractometry
[3] = Vibrating tube method

CCCCO [butan-1-ol] + O=C=O
[1]
Conditions | mass density [kg/m3]
1000 kPa, x2 = 0 | 794.9 ± 0.2
2000 kPa, x2 = 0 | 795.6 ± 0.2
2000 kPa, x2 = 0.103 | 802.2 ± 0.3
3000 kPa, x2 = 0 | 796.3 ± 0.2
3000 kPa, x2 = 0.103 | 803 ± 0.3
4000 kPa, x2 = 0 | 797 ± 0.2
4000 kPa, x2 = 0.103 | 803.8 ± 0.3
4000 kPa, x2 = 0.204 | 810.6 ± 0.3
5000 kPa, x2 = 0 | 797.6 ± 0.2
5000 kPa, x2 = 0.103 | 804.6 ± 0.3
5000 kPa, x2 = 0.204 | 811.6 ± 0.3
5000 kPa, x2 = 0.3 | 817 ± 0.3
6000 kPa, x2 = 0 | 798.3 ± 0.3
6000 kPa, x2 = 0.103 | 805.4 ± 0.3
6000 kPa, x2 = 0.204 | 812.4 ± 0.3
6000 kPa, x2 = 0.3 | 818.1 ± 0.3
7000 kPa, x2 = 0 | 798.9 ± 0.3
7000 kPa, x2 = 0.103 | 806.2 ± 0.3
7000 kPa, x2 = 0.204 | 813.4 ± 0.3
7000 kPa, x2 = 0.3 | 819.1 ± 0.3
7000 kPa, x2 = 0.404 | 825.1 ± 0.3
7000 kPa, x2 = 0.503 | 829.1 ± 0.3
8000 kPa, x2 = 0 | 799.6 ± 0.3
8000 kPa, x2 = 0.103 | 806.9 ± 0.3
8000 kPa, x2 = 0.204 | 814.3 ± 0.3
8000 kPa, x2 = 0.3 | 820.2 ± 0.3
8000 kPa, x2 = 0.404 | 826.5 ± 0.3
8000 kPa, x2 = 0.503 | 830.9 ± 0.3
8000 kPa, x2 = 0.6 | 830.9 ± 0.3
8000 kPa, x2 = 0.703 | 824.9 ± 3
9000 kPa, x2 = 0 | 800.2 ± 0.3
9000 kPa, x2 = 0.103 | 807.7 ± 0.3
9000 kPa, x2 = 0.204 | 815.2 ± 0.3
9000 kPa, x2 = 0.3 | 821.2 ± 0.3
9000 kPa, x2 = 0.404 | 827.8 ± 0.3
9000 kPa, x2 = 0.503 | 832.6 ± 0.3
9000 kPa, x2 = 0.6 | 833.4 ± 0.3
9000 kPa, x2 = 0.703 | 829.1 ± 0.3
9000 kPa, x2 = 0.802 | 810.5 ± 0.7
9000 kPa, x2 = 0.9 | 762.6 ± 1.4
9000 kPa, x2 = 0.95 | 704.5 ± 5.6
10000 kPa, x2 = 0 | 800.9 ± 0.3
10000 kPa, x2 = 0.103 | 808.4 ± 0.3
10000 kPa, x2 = 0.204 | 816.1 ± 0.3
10000 kPa, x2 = 0.3 | 822.3 ± 0.3
10000 kPa, x2 = 0.404 | 829.1 ± 0.3
10000 kPa, x2 = 0.503 | 834.3 ± 0.3
10000 kPa, x2 = 0.6 | 835.8 ± 0.3
10000 kPa, x2 = 0.703 | 833.1 ± 0.3
10000 kPa, x2 = 0.802 | 817.8 ± 0.6
10000 kPa, x2 = 0.9 | 779.1 ± 1.1
10000 kPa, x2 = 0.95 | 735.5 ± 3

CCCCO [butan-1-ol]
Conditions | refractive index
[2] | 1.3973 ± 0.0028

[3], Liquid
Conditions | mass density [kg/m3]
298.15 K, 101.33 kPa | 805.8 ± 0.2
313.15 K, 1000 kPa | 794.9 ± 0.2
313.15 K, 2000 kPa | 795.6 ± 0.2
313.15 K, 3000 kPa | 796.3 ± 0.2
313.15 K, 4000 kPa | 797 ± 0.2
313.15 K, 5000 kPa | 797.6 ± 0.2
313.15 K, 6000 kPa | 798.3 ± 0.3
313.15 K, 7000 kPa | 798.9 ± 0.3
313.15 K, 8000 kPa | 799.6 ± 0.3
313.15 K, 9000 kPa | 800.2 ± 0.3
313.15 K, 10000 kPa | 800.9 ± 0.3

O=C=O [carbon dioxide] + CCCCO
[1], x1 = 1
Conditions | mass density [kg/m3]
1000 kPa | 17.9 ± 0.2
2000 kPa | 37.1 ± 0.2
3000 kPa | 58.7 ± 0.2
4000 kPa | 83.5 ± 0.2
5000 kPa | 112.7 ± 0.2
6000 kPa | 148.8 ± 0.3
7000 kPa | 197.3 ± 0.3
8000 kPa | 276.7 ± 0.4
9000 kPa | 483.4 ± 0.5
10000 kPa | 627.4 ± 0.5

O=C=O [carbon dioxide]
[3], 313.15 K, Fluid (supercritical or subcritical phases)
Conditions | mass density [kg/m3]
1000 kPa | 17.9 ± 0.2
2000 kPa | 37.1 ± 0.2
3000 kPa | 58.7 ± 0.2
4000 kPa | 83.5 ± 0.2
5000 kPa | 112.7 ± 0.2
6000 kPa | 148.8 ± 0.3
7000 kPa | 197.3 ± 0.3
8000 kPa | 276.7 ± 0.4
9000 kPa | 483.4 ± 0.5
10000 kPa | 627.4 ± 0.5
